Assay [1] has as its system mutant versus wild-type cell lines of the 44 cell line panel. Put plainly: Anova analysis of cell panel IC50s against cancer gene changes; standardized mean difference (targetedness).
For assay [2], the system named is forty-four human cancer cell lines. Put plainly: Cell proliferation assay (ATPlite, 72 hours) in the 44 cell line Oncolines panel. In kind it is cell-based.

The values below come from publication PMC3961306, “Comparison of the Cancer Gene Targeting and Biochemical Selectivities of All Targeted Kinase Inhibitors Approved for Clinical Use” (PLoS ONE, 2014).

Read-outs that look alike come from different tables or passages of the source. Where only a bound is given, the exact number is not on record here.

In the case of `Cc1ccc(NC(=O)c2ccc(CN3CCN(C)CC3)cc2)cc1Nc1nccc(-c2cccnc2)n1` [imatinib], the “targetedness (standardized logIC50 difference)” value in assay [1] (ABL1 oncogene targeting, Figure 5D) is -9.84.

Take `Cn1cnc2c(F)c(Nc3ccc(Br)cc3Cl)c(C(=O)NOCCO)cc21` [selumetinib]: the “Potency shift in cell lines expressing mutant β-catenin (CTNNB1) versus wild-type” value in assay [1] (CTNNB1 mutant versus wild-type, average) is recorded as “more than tenfold”.

As to `CNC(=O)c1ccccc1Sc1ccc2c(/C=C/c3ccccn3)n[nH]c2c1` [axitinib], the IC50 amounted to 1.29 µM in assay [2] (Homo sapiens, 4-4 cell, read-out: cell panel IC50, PA-1); 3.21 µM in assay [2] (Homo sapiens, A498, read-out: cell panel IC50, A-498); 5.65 µM in assay [2] (Homo sapiens, A-375, read-out: cell panel IC50, A375); 2.29 µM in assay [2] (Homo sapiens, HCT-116, read-out: cell panel IC50, HCT-116); 5.57 µM in assay [2] (Homo sapiens, SHP77, read-out: cell panel IC50, SHP-77).

For `N.N.[Cl][Pt][Cl]` [cisplatin], the IC50 in assay [2] (U-87 MG cell line, ATPlite, 72 hours, read-out: IC50 in cell proliferation assay (table S5 cellpanel data)) is greater than 31.6 µM; in assay [2] (cell line 769-P, read-out: cell panel IC50, 769-P), greater than 31.6 µM; in assay [2] (cell line 786-0, read-out: cell panel IC50, 786-0), 15.1 µM; in assay [2] (cell line A375, read-out: cell panel IC50, A375), 13.3 µM; in assay [2] (cell line A-204, read-out: cell panel IC50, A-204) it was greater than 31.6 µM; in assay [2] (cell line ACHN, read-out: cell panel IC50, ACHN) it was 13.5 µM. The IC50 was 27.5 µM in assay [2] (cell line AN3 CA, read-out: cell panel IC50, AN3 CA); greater than 31.6 µM in assay [2] (cell line BT-20, read-out: cell panel IC50, BT-20); 20.2 µM in assay [2] (cell line BxPC-3, read-out: cell panel IC50, BxPC-3); 13.9 µM in assay [2] (cell line C-33 A, read-out: cell panel IC50, C-33 A); 6.14 µM in assay [2] (cell line CAL 27, read-out: cell panel IC50, CAL 27); 10.5 µM in assay [2] (cell line CCRF-CEM, read-out: cell panel IC50, CCRF-CEM). Moreover, the IC50 in assay [2] (cell line DLD-1, read-out: cell panel IC50, DLD-1) is greater than 31.6 µM; in assay [2] (cell line FaDu, read-out: cell panel IC50, FaDu), 27.3 µM; in assay [2] (cell line HCT-15, read-out: cell panel IC50, HCT-15), greater than 31.6 µM; in assay [2] (cell line Hs 578T, read-out: cell panel IC50, Hs 578T), greater than 31.6 µM; in assay [2] (cell line J82, read-out: cell panel IC50, J82), 10.1 µM; in assay [2] (cell line Jurkat E6.1, read-out: cell panel IC50, Jurkat E6.1), 4.85 µM. The IC50 in assay [2] (cell line LoVo, read-out: cell panel IC50, LoVo) was greater than 31.6 µM; in assay [2] (cell line MG-63, read-out: cell panel IC50, MG-63) it was 8.57 µM; in assay [2] (cell line MOLT-4, read-out: cell panel IC50, MOLT-4), 8.09 µM; in assay [2] (cell line MeWo, read-out: cell panel IC50, MeWo), greater than 31.6 µM; in assay [2] (cell line NCI-H82, read-out: cell panel IC50, NCI-H82) it was 19.8 µM; in assay [2] (cell line NCI-H460, read-out: cell panel IC50, NCI-H460), 10 µM. The IC50 in assay [2] (cell line OVCAR-3, read-out: cell panel IC50, OVCAR-3) was greater than 31.6 µM; in assay [2] (cell line PA-1, read-out: cell panel IC50, PA-1) it was 1.42 µM; in assay [2] (cell line RPMI-7951, read-out: cell panel IC50, RPMI-7951), 10 µM; in assay [2] (cell line SHP-77, read-out: cell panel IC50, SHP-77) it was greater than 31.6 µM; in assay [2] (cell line SJCRH30, read-out: cell panel IC50, SJCRH30), greater than 31.6 µM; in assay [2] (cell line SK-N-AS, read-out: cell panel IC50, SK-N-AS), greater than 31.6 µM. For the same compound, the IC50 is 4.45 µM in assay [2] (cell line SR, read-out: cell panel IC50, SR); greater than 31.6 µM in assay [2] (cell line SW48, read-out: cell panel IC50, SW48); greater than 31.6 µM in assay [2] (cell line SW480, read-out: cell panel IC50, SW480); greater than 31.6 µM in assay [2] (cell line SW620, read-out: cell panel IC50, SW620); greater than 31.6 µM in assay [2] (cell line U-2 OS, read-out: cell panel IC50, U-2 OS); greater than 31.6 µM in assay [2] (read-out: cell panel IC50, A-172, cell line A-172). Besides, the IC50 is greater than 31.6 µM in assay [2] (read-out: cell panel IC50, A-427, cell line A-427); 23.3 µM in assay [2] (read-out: cell panel IC50, A-498, cell line A-498); 15.6 µM in assay [2] (read-out: cell panel IC50, A-549, cell line A-549); 15.2 µM in assay [2] (read-out: cell panel IC50, AU-565, cell line AU-565); 9.55 µM in assay [2] (read-out: cell panel IC50, BT-549, cell line BT-549); greater than 31.6 µM in assay [2] (read-out: cell panel IC50, HCT-116, cell line HCT-116). Also, the IC50 was greater than 31.6 µM in assay [2] (read-out: cell panel IC50, K-562, cell line K-562) and 8.57 µM in assay [2] (read-out: cell panel IC50, LS 174T, cell line LS 174T).
